# Data taken from patent US20210253575A1, “PYRROLIDINE AMINE COMPOUNDS FOR THE TREATMENT OF AUTOIMMUNE DISEASE” (Hoffmann-La Roche Inc., priority 2018, published 2021).
# Target: T1, human TLR8 (Homo sapiens, UniProt Q9NR97)
# T1 sequence (Q9NR97 27-1041): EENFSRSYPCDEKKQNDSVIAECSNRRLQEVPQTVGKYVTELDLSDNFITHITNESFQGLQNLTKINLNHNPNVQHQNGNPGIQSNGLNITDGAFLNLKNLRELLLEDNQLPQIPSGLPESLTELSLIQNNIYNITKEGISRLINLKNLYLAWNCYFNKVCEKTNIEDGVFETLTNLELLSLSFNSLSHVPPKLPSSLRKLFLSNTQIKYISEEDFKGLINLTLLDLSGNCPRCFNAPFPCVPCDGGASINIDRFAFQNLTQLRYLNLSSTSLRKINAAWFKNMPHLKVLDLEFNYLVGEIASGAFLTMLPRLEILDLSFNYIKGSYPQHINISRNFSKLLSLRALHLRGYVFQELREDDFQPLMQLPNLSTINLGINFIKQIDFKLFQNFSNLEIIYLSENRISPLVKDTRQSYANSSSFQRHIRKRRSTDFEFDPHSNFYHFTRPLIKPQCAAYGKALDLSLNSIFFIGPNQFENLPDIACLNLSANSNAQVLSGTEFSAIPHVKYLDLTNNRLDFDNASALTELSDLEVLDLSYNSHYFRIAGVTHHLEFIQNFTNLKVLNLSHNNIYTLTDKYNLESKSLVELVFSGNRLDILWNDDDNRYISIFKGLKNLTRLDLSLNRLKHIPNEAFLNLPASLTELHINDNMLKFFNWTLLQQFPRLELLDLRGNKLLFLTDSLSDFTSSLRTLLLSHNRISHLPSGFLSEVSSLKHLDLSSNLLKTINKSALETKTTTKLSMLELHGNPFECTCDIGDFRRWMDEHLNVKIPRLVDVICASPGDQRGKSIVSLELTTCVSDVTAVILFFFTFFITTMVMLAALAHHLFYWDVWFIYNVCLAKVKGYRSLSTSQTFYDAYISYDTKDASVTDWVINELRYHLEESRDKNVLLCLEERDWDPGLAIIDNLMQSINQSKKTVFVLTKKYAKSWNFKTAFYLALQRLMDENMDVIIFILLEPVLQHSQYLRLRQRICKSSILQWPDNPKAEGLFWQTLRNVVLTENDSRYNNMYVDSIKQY
# Test: HEK293-Blue-hTLR-8 cells assay (SEAP reporter, R848 stimulation)
# Format: cell-based
# Conditions: HEK293-Blue-hTLR8 cells, R848 ligand, 20 hrs incubation
# In short: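 Antagonism was measured in HEK293-Blue-hTLR8 cells with an NF-κB/AP-1-driven SEAP reporter. Cells were stimulated with R848 (10 μL of 60 uM stock) alongside compound (1% DMSO) for 20 hrs at 37° C. Supernatant SEAP was read with QUANTI-Blue after 2 hrs, absorbance at 620-655 nm.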
row,SMILES,IC50 [nM]
1,"CC1(CN)CCN(C[C@H]2CN(c3ccc(C#N)c4nccnc34)C[C@@H]2C(F)(F)F)C1 (stereo partly drawn) [Example 85, 8-[(3S,4R)-3-[[3-(aminomethyl)-3-methyl-pyrrolidin-1-yl]methyl]-4-(trifluoromethyl)pyrrolidin-1-yl]quinoxaline-5-carbonitrile]",75
2,"CN1CCC2(CCN(C[C@H]3CN(c4ccc(C#N)c5nccnc45)C[C@@H]3C(F)(F)F)C2)C1 (stereo partly drawn) [Example 84, 8-[(3S,4R)-3-[(7-methyl-2,7-diazaspiro[4.4]nonan-2-yl)methyl]-4-(trifluoromethyl)pyrrolidin-1-yl]quinoxaline-5-carbonitrile]",57
3,"N#Cc1ccc(N2CC(CN3CC4CCC(C3)C4N)C3(CC3)C2)c2nccnc12 (centres unmarked) [Example 4, 8-[7-[(8-Amino-3-azabicyclo[3.2.1]octan-3-yl)methyl]-5-azaspiro[2.4]heptan-5-yl]quinoxaline-5-carbonitrile]",38
4,"CN(C)[C@@H]1CCN(C[C@H]2CN(c3ccc(C#N)c4nccnc34)C[C@@H]2C(F)(F)F)C1 [Example 83, 8-[(3S,4R)-3-[[(3R)-3-(dimethylamino)pyrrolidin-1-yl]methyl]-4-(trifluoromethyl)pyrrolidin-1-yl]quinoxaline-5-carbonitrile]",65
5,"N#Cc1ccc(N2CC(CN3CCNCC3)C3(CC3)C2)c2nccnc12 (centres unmarked) [Example 3, 8-[7-(piperazin-1-ylmethyl)-5-azaspiro[2.4]heptan-5-yl]quinoxaline-5-carbonitrile]",12
